Source: ChEMBL document CHEMBL4145603, “Iridoids from the Roots of Patrinia scabra and Their Inhibitory Potential on LPS-Induced Nitric Oxide Production” (J Nat Prod, 2018)

Tested on: RAW264.7
Assay: Inhibition of LPS-stimulated nitric oxide production in […] RAW264.7 cells after 24 hrs by Griess assay
Assay type: functional, cell-based
Settings: Mus musculus; for IC50: RAW264.7, 24 h

Structure (SMILES)	IC50 [µM]	inhibition
CC(C)CC(=O)OCC1=CO[C@H](OC(=O)CC(C)C)[C@@H]2[C@@](O)(COC(=O)CC(C)C)[C@H](O)C[C@]12O	26	
CC(C)CC(=O)OCC1=CO[C@H](OC(=O)CC(C)C)[C@H]2C1(O)C[C@@H](O)[C@]2(O)COC(=O)CC(C)C (some centres undefined)	14.7	Dose-dependent effect
CC(C)CC(=O)OCC1=CO[C@@H](OC(=O)CC(C)C)[C@H]2C1=C[C@H](O)[C@]2(O)CO	> 50	
CC(C)CC(=O)OCC1=COC=C2C1=CC(=O)[C@]2(O)CCl	27.6	
CC(C)CC(=O)OCC1=COC=C2C1=CC(=O)[C@]2(O)COC(=O)CC(C)C	17.1	Dose-dependent effect
COc1cc([C@@H](O)[C@@H](COC(=O)CC(C)C)Oc2c(O)cc(/C=C/COC(=O)CC(C)C)cc2OC)cc(OC)c1O	17.8	Dose-dependent effect
